Data published in patent US5952464A, “Labelled peptide compounds” (Mallinckrodt Inc., priority 1994, dated 1999).

Legend:
[1] = target: rat brain synaptic membranes; details: binding on rat brain synaptic membranes; cited from earlier work
[2] = cited from earlier work
[3] = test system: human brain neurotensin receptors; details: cited from earlier work
[4] = enzymatic stability in vitro in human serum; type: in vitro ADME
Description: The enzymatic stability of the four radioiodinated analogues (1), (2), (3) and (4) is determined in vitro in human serum in a conventional manner, showing that this stability is sufficient.

[5] = target: neurotensin receptor sites; experiment: inhibition of [3H]neurotensin binding to guinea pig forebrain membranes
Description: Binding assays are performed by studying the inhibition of [^3 H]neurotensin binding to guinea pig forebrain membranes. The following results are obtained, using the unlabelled acetyl compound […]-OH (SEQ ID NO:4) (a) as the reference.

Row | Substance | Kd [1] | in vivo half-life [2] | affinity of neurotensin receptors in human brain ([3]; preliminary experiments, Sadoul et al. 1984) | enzymatic stability [4] | pIC50 [5] | Kd ([3]; binding to human brain neurotensin receptors)
1 | monoiodo-[Trp^11 ]-neurotensin (QLYENKPRRPWIL; Neurotensin 125I on Tyr3; UniProt P30990 151-163, looked up, variant Y11W) [monoiodo-[Trp11]-neurotensin, neurotensin analogue with tyrosine-11 replaced by tryptophan, mono-iodinated with 125-iodide on tyrosine-3] | 0.1 nM | only a few minutes | low affinity |  |  | 
2 | (4*I-phenyl)acetyl-^1 Arg-^2 Arg-^3 Pro-^4 Tyr-^5 -Ile-^6 Leu-OH [(2)] |  |  |  | sufficient | 7.87 | 
3 | (2-*I-phenyl)acetyl-^1 Arg-^2 Arg-^3 Pro-^4 Tyr-^5 Ile-^6 Leu-OH [(1)] |  |  |  | sufficient | 8.05 | 
4 | 4-*I-benzoyl-^1 Arg-^2 Arg-^3 Pro-^4 Tyr-^5 Ile-^6 Leu-OH [(4)] |  |  |  | sufficient | 8.10 | 
5 | 2-*I-benzoyl-^1 Arg-^2 Arg-^3 Pro-^4 Tyr-^5 Ile-^6 Leu-OH [(3)] |  |  |  | sufficient | 8.07 | 
6 | mono-iodo derivative of neurotensin: mono-iodo derivative of neurotensin itself; only tyrosine-3 iodinated with 125-iodide | 0.2 nM | only a few minutes |  |  |  | 0.26 nM
